Legend:
Type in all cases: in vivo
[1] = tested on: Diabrotica Balteata; assay: Diabrotica balteata (corn root worm) maize sprout test; conditions: 96 h, read-out: effect in at least one of the two categories (mortality or growth inhibition)
Method: Diabrotica Balteata, (Corn Root Worm)
Maize sprouts, placed on an agar layer in 24-well microtiter plates were treated with aqueous test solutions prepared from 10′000 ppm DMSO stock solutions by spraying. After drying, the plates were infested with L2 larvae (6 to 10 per well). The samples were assessed for mortality and growth inhibition in comparison to untreated samples 4 days after infestation. The following compounds gave an effect of at least 80% in at least one of the two categories (mortality or growth inhibition) at an application rate of 200 ppm: […]

[2] = tested on: Thrips tabaci; assay: Thrips tabaci (onion thrips) sunflower leaf disc test; conditions: foliar, 144 h
Method: Thrips tabaci (Onion Thrips):
(§1) Sunflower leaf discs were placed on agar in 24-well microtiter plates and sprayed with aqueous test solutions prepared from 10′000 ppm DMSO stock solutions. After drying the leaf discs were infested with a thrips population of mixed ages. The samples were assessed for mortality 6 days after infestation.

[3] = tested on: Spodoptera littoralis; assay: Spodoptera littoralis (Egyptian cotton leaf worm) cotton leaf disc test; conditions: foliar, 72 h, read-out: control (at least one of mortality, anti-feedant effect, and growth inhibition)
Method: Spodoptera littoralis (Egyptian Cotton Leaf Worm)
Cotton leaf discs were placed on agar in 24-well microtiter plates and sprayed with aqueous test solutions prepared from 10′000 ppm DMSO stock solutions. After drying the leaf discs were infested with five L1 larvae. The samples were assessed for mortality, anti-feedant effect, and growth inhibition in comparison to untreated samples 3 days after infestation. Control of Spodoptera littoralis by a test sample is when at least one of mortality, anti-feedant effect, and growth inhibition is higher than the untreated sample.

[4] = tested on: Myzus persicae; assay: Myzus persicae (green peach aphid) sunflower leaf disc test; conditions: foliar, 144 h
Method: Myzus persicae (Green Peach Aphid):
Sunflower leaf discs were placed on agar in a 24-well microtiter plate and sprayed with test solutions at an application rate of 200 ppm. After drying, the leaf discs were infested with an aphid population of mixed ages. After an incubation period of 6 days after treatment, samples were checked for mortality. The following compounds gave at least 80% mortality of Myzus persicae: […]

[5] = tested on: Plutella xylostella; assay: Plutella xylostella (diamond back moth) artificial diet test; conditions: 120 h, read-out: effect in at least one of the two categories (mortality or growth inhibition)
Method: Plutella xylostella (Diamond Back Moth):
24-well microtiter plates with artificial diet were treated with aqueous test solutions prepared from 10′000 ppm DMSO stock solutions by pipetting. After drying, the plates were infested with L2 larvae (10 to 15 per well). The samples were assessed for mortality and growth inhibition in comparison to untreated samples 5 days after infestation. The following compounds gave an effect of at least 80% in at least one of the two categories (mortality or growth inhibition) at an application rate of 200 ppm: […]

[6] = tested on: Tetranychus urticae; assay: Tetranychus urticae (two-spotted spider mite) bean leaf disc test; conditions: foliar, 192 h
Method: Tetranychus urticae (Two-Spotted Spider Mite):
as §1, with “Bean” for “Sunflower”, “discs” for “discs were placed”, “were” for “and”, “mite” for “thrips”, “on mixed population (mobile stages) 8” for “6”

COC1=NOC(NC(=O)c2ccc(C3=NO[C@@](c4cc(Cl)c(Cl)c(Cl)c4)(C(F)(F)F)C3)cc2Cl)C1 (stereo partly drawn) [Compound A043]
≥ 80%: percent effect (mortality or growth inhibition) at 200 ppm [1] | mortality at 200 ppm [2] | percent control (mortality, anti-feedant effect or growth inhibition) at 200 ppm [3] | mortality at 200 ppm [4] | percent effect (mortality or growth inhibition) at 200 ppm [5] | mortality at 200 ppm [6]

Cc1cc(C2=NO[C@@](c3cc(Cl)c(F)c(Cl)c3)(C(F)(F)F)C2)ccc1C(=O)N(C=O)C1CC(Cl)=NO1 (stereo partly drawn) [Compound A011, N-(3-chloro-4,5-dihydroisoxazol-5-yl)-4-[(5S)-5-(3,5-dichloro-4-fluoro-phenyl)-5-(trifluoromethyl)-4H-isoxazol-3-yl]-N-formyl-2-methyl-benzamide]
≥ 80%: percent effect (mortality or growth inhibition) at 200 ppm [1] | mortality at 200 ppm [2] | percent control (mortality, anti-feedant effect or growth inhibition) at 200 ppm [3] | mortality at 200 ppm [4] | percent effect (mortality or growth inhibition) at 200 ppm [5] | mortality at 200 ppm [6]

Cc1cc(C2=NO[C@@](c3cc(Cl)c(Cl)c(Cl)c3)(C(F)(F)F)C2)ccc1C(=O)N(C=O)C1CC(Cl)=NO1 (stereo partly drawn) [Compound A010, N-(3-chloro-4,5-dihydroisoxazol-5-yl)-N-formyl-2-methyl-4-[(5S)-5-(3,4,5-trichlorophenyl)-5-(trifluoromethyl)-4H-isoxazol-3-yl]benzamide]
≥ 80%: percent effect (mortality or growth inhibition) at 200 ppm [1] | mortality at 200 ppm [2] | percent control (mortality, anti-feedant effect or growth inhibition) at 200 ppm [3] | mortality at 200 ppm [4] | percent effect (mortality or growth inhibition) at 200 ppm [5] | mortality at 200 ppm [6]

CC1=NOC(NC(=O)c2ccc(C3=NO[C@@](c4cc(Cl)cc(Cl)c4)(C(F)(F)F)C3)cc2C)C1 (stereo partly drawn) [Compound A141]
≥ 80%: percent effect (mortality or growth inhibition) at 200 ppm [1] | mortality at 200 ppm [2] | percent control (mortality, anti-feedant effect or growth inhibition) at 200 ppm [3] | mortality at 200 ppm [4] | percent effect (mortality or growth inhibition) at 200 ppm [5] | mortality at 200 ppm [6]

Cc1cc(C2=NO[C@@](c3cc(Cl)cc(C(F)(F)F)c3)(C(F)(F)F)C2)ccc1C(=O)N(C=O)C1CC(Br)=NO1 (stereo partly drawn) [Compound A142, N-(3-bromo-4,5-dihydroisoxazol-5-yl)-4-[(5S)-5-[3-chloro-5-(trifluoromethyl)phenyl]-5-(trifluoromethyl)-4H-isoxazol-3-yl]-N-formyl-2-methyl-benzamide]
≥ 80%: percent effect (mortality or growth inhibition) at 200 ppm [1] | mortality at 200 ppm [2] | percent control (mortality, anti-feedant effect or growth inhibition) at 200 ppm [3] | mortality at 200 ppm [4] | percent effect (mortality or growth inhibition) at 200 ppm [5] | mortality at 200 ppm [6]

Cc1cc(C2=NO[C@@](c3cc(Cl)c(F)c(Cl)c3)(C(F)(F)F)C2)ccc1C(=O)NC1CC(OCC2CC2)=NO1 (stereo partly drawn) [Compound A083]
≥ 80%: percent effect (mortality or growth inhibition) at 200 ppm [1] | mortality at 200 ppm [2] | percent control (mortality, anti-feedant effect or growth inhibition) at 200 ppm [3] | mortality at 200 ppm [4] | percent effect (mortality or growth inhibition) at 200 ppm [5] | mortality at 200 ppm [6]

Cc1cc(C2=NO[C@@](c3cc(Cl)c(Cl)c(Cl)c3)(C(F)(F)F)C2)ccc1C(=O)NC1CC(OCC2CCC2)=NO1 (stereo partly drawn) [Compound A111, N-[3-(cyclobutylmethoxy)-4,5-dihydroisoxazol-5-yl]-2-methyl-4-[(5S)-5-(3,4,5-trichlorophenyl)-5-(trifluoromethyl)-4H-isoxazol-3-yl]benzamide]
≥ 80%: percent effect (mortality or growth inhibition) at 200 ppm [1] | mortality at 200 ppm [2] | percent control (mortality, anti-feedant effect or growth inhibition) at 200 ppm [3] | mortality at 200 ppm [4] | percent effect (mortality or growth inhibition) at 200 ppm [5] | mortality at 200 ppm [6]

COC1=NOC(NC(=O)c2ccc(C3=NO[C@@](c4cc(Cl)c(F)c(Cl)c4)(C(F)(F)F)C3)cc2C)C1 (stereo partly drawn) [Compound A030, 4-[(5S)-5-(3,5-dichloro-4-fluoro-phenyl)-5-(trifluoromethyl)-4H-isoxazol-3-yl]-N-(3-methoxy-4,5-dihydroisoxazol-5-yl)-2-methyl-benzamide]
≥ 80%: percent effect (mortality or growth inhibition) at 200 ppm [1] | mortality at 200 ppm [2] | percent control (mortality, anti-feedant effect or growth inhibition) at 200 ppm [3] | mortality at 200 ppm [4] | percent effect (mortality or growth inhibition) at 200 ppm [5] | mortality at 200 ppm [6]

CCNC(=O)COC1=NOC(NC(=O)c2ccc(C3=NO[C@@](c4cc(Cl)c(Cl)c(Cl)c4)(C(F)(F)F)C3)cc2C)C1 (stereo partly drawn) [Compound A115, N-[3-[2-(ethylamino)-2-oxo-ethoxy]-4,5-dihydroisoxazol-5-yl]-2-methyl-4-[(5S)-5-(3,4,5-trichlorophenyl)-5-(trifluoromethyl)-4H-isoxazol-3-yl]benzamide]
≥ 80%: percent effect (mortality or growth inhibition) at 200 ppm [1] | mortality at 200 ppm [2] | percent control (mortality, anti-feedant effect or growth inhibition) at 200 ppm [3] | mortality at 200 ppm [4] | percent effect (mortality or growth inhibition) at 200 ppm [5] | mortality at 200 ppm [6]

C#CCOC1=NOC(NC(=O)c2ccc(C3=NO[C@@](c4cc(Cl)c(F)c(Cl)c4)(C(F)(F)F)C3)cc2C)C1 (stereo partly drawn) [Compound A074]
≥ 80%: percent effect (mortality or growth inhibition) at 200 ppm [1] | mortality at 200 ppm [2] | percent control (mortality, anti-feedant effect or growth inhibition) at 200 ppm [3] | mortality at 200 ppm [4] | percent effect (mortality or growth inhibition) at 200 ppm [5] | mortality at 200 ppm [6]

CC1=NOC(NC(=O)c2ccc(C3=NO[C@@](c4cc(Cl)c(F)c(Cl)c4)(C(F)(F)F)C3)cc2Br)C1 (stereo partly drawn) [Compound A036, 2-bromo-4-[(5S)-5-(3,5-dichloro-4-fluoro-phenyl)-5-(trifluoromethyl)-4H-isoxazol-3-yl]-N-(3-methyl-4,5-dihydroisoxazol-5-yl)benzamide]
≥ 80%: percent effect (mortality or growth inhibition) at 200 ppm [1] | mortality at 200 ppm [2] | percent control (mortality, anti-feedant effect or growth inhibition) at 200 ppm [3] | mortality at 200 ppm [4] | percent effect (mortality or growth inhibition) at 200 ppm [5] | mortality at 200 ppm [6]

COCC1=NOC(NC(=O)c2ccc(C3=NO[C@@](c4cc(Cl)c(F)c(Cl)c4)(C(F)(F)F)C3)cc2C)C1 (stereo partly drawn) [Compound A090]
≥ 80%: percent effect (mortality or growth inhibition) at 200 ppm [1] | mortality at 200 ppm [2] | percent control (mortality, anti-feedant effect or growth inhibition) at 200 ppm [3] | mortality at 200 ppm [4] | percent effect (mortality or growth inhibition) at 200 ppm [5] | mortality at 200 ppm [6]

Cc1cc(C2=NO[C@@](c3cc(Cl)c(Cl)c(Cl)c3)(C(F)(F)F)C2)ccc1C(=O)NC1CC(OCc2ccccc2)=NO1 (stereo partly drawn) [Compound A110, N-(3-benzyloxy-4,5-dihydroisoxazol-5-yl)-2-methyl-4-[(5S)-5-(3,4,5-trichlorophenyl)-5-(trifluoromethyl)-4H-isoxazol-3-yl]benzamide]
≥ 80%: percent effect (mortality or growth inhibition) at 200 ppm [1] | mortality at 200 ppm [2] | percent control (mortality, anti-feedant effect or growth inhibition) at 200 ppm [3] | mortality at 200 ppm [4] | percent effect (mortality or growth inhibition) at 200 ppm [5] | mortality at 200 ppm [6]

CC1=NOC(N(C=O)C(=O)c2ccc(C3=NO[C@@](c4cc(Cl)c(Cl)c(Cl)c4)(C(F)(F)F)C3)cc2Cl)C1 (stereo partly drawn) [Compound A024, 2-chloro-N-formyl-N-(3-methyl-4,5-dihydroisoxazol-5-yl)-4-[(5S)-5-(3,4,5-trichlorophenyl)-5-(trifluoromethyl)-4H-isoxazol-3-yl]benzamide]
≥ 80%: percent effect (mortality or growth inhibition) at 200 ppm [1] | mortality at 200 ppm [2] | percent control (mortality, anti-feedant effect or growth inhibition) at 200 ppm [3] | mortality at 200 ppm [4] | percent effect (mortality or growth inhibition) at 200 ppm [5] | mortality at 200 ppm [6]

CC(=O)OCC1=NOC(NC(=O)c2ccc(C3=NO[C@@](c4cc(Cl)c(F)c(Cl)c4)(C(F)(F)F)C3)cc2C)C1 (stereo partly drawn) [Compound A069]
≥ 80%: percent effect (mortality or growth inhibition) at 200 ppm [1] | mortality at 200 ppm [2] | percent control (mortality, anti-feedant effect or growth inhibition) at 200 ppm [3] | mortality at 200 ppm [4] | percent effect (mortality or growth inhibition) at 200 ppm [5] | mortality at 200 ppm [6]

CCOC1=NOC(NC(=O)c2ccc(C3=NO[C@@](c4cc(Cl)cc(Cl)c4)(C(F)(F)F)C3)cc2C)C1 (stereo partly drawn) [Compound A061, 4-[(5S)-5-(3,5-dichlorophenyl)-5-(trifluoromethyl)-4H-isoxazol-3-yl]-N-(3-ethoxy-4,5-dihydroisoxazol-5-yl)-2-methyl-benzamide]
≥ 80%: percent effect (mortality or growth inhibition) at 200 ppm [1] | mortality at 200 ppm [2] | percent control (mortality, anti-feedant effect or growth inhibition) at 200 ppm [3] | mortality at 200 ppm [4] | percent effect (mortality or growth inhibition) at 200 ppm [5] | mortality at 200 ppm [6]
